Laboratory results from patent US20150209309A1, “NACA FOR THE TREATMENT OF CHRONIC OR ACUTE COGNITIVE DYSFUNCTION” (Brighton Biotech, Inc, priority 2014, published 2015).

Tests used:
[1] = in vivo
[2] = cited from earlier work

For CC(=O)N[C@@H](CS)C(=O)O [NAC, N-acetyl-L-cysteine], the “crossing of the blood-brain barrier” value [1] is listed as “inability to cross the blood-brain barrier” and the “membrane penetration / cell permeability” value [2] is listed as “low membrane penetration”.
